Source: PubChem BioAssay AID2060488 (Molecular Pharmacology Branch, DTP, NCI, 2025)

Test system: 966289-007-R4-J1-PDC complex spheroid viability
Assay: Anticancer human tumor 966289-007-R4-J1-PDC patient-derived pancreatic adenocarcinoma cell line growth inhibition [GQUAD]
Settings: for IC50: curve of first compound; for viability, T/C: stronger effect = lower value
Description: DNA G-quadruplex Stabilizer Agents in Combinations in Complex Spheroids
A high-throughput screen of multi-cell type tumor spheroids was designed to identify active combinations of DNA G-quadruplex stabilizer agents and targeted small molecules. Complex spheroids include a stromal component modeled by human endothelial cells (HUVEC) and fibroblasts modeled by human mesenchymal stem cells (MSCs). The concentration ranges selected for each drug and investigational agent were based upon clinically achievable concentrations if the clinical Cmax of the agent was known.
Compounds. The drugs and investigational agents: pidnarulex (CX-5461; NSC782164), APTO-253 (NSC789042), BRACO-19 (NSC847499), peposertib (NSC802822), ceralasertib (NSC780249), elimusertib (NSC800525), camonsertib (NSC841442), AZD-1390 (NSC803789), olaparib (NSC753686), talazoparib (NSC767125), ART-558 (NSC835418), sotorasib (NSC818433), MRTX-1133 (NSC836407), SN-38 (NSC673596), topotecan (NSC609699), etoposide (NSC141540), doxorubicin (NSC123127), gemcitabine (NSC613327), 5-fluorouracil (NSC19893), paclitaxel (NSC125973), vemurafenib (NSC761431), panobinostat (NSC761190), R-306465 (JNJ-16241199; NSC773264), adavosertib (NSC754352), TP-3654 (NSC805149), carboplatin (NSC241240), KSQ-4279 (NSC840948), and staurosporine (NSC755774) were obtained from the National Cancer Institute (NCI) Developmental Therapeutics Program Chemical Repository (34). The FDA-approved anticancer drug set is available from the NCI Developmental Therapeutics Program. […] The stock solutions were prepared in dimethyl sulfoxide (DMSO, Sigma-Aldrich, St. Louis, MO, cat. D2650) at 800-fold the tested concentration and stored at -70 degrees C prior to their use. All drugs and investigational agents were tested over a range starting from a high concentration at or near the clinical Cmax and decreasing in half-log increments. If the clinical Cmax for an agent had not been determined, the highest concentration tested was 10 microM.
2.3 Cell Culture. All cells were maintained in an incubator at 37 degrees C and 5% CO2 with 95% humidity. The PDC lines were cultured according to standard operating procedures established by the NCI PDMR. All PDCs were thawed and cultured in Matrigel-coated flasks prepared with a working solution of 1X Ham's F-12 nutrient mix, without supplementation (Invitrogen, cat. 11765054), 100 U/mL penicillin-streptomycin (Invitrogen, cat. 15140122), and 2.5% Matrigel (Corning Inc., cat. 354248) for the first three passages. The 857933-349-R-J2-PDC line was cultured in 6C/Colon 1B media, which includes advanced DMEM/F-12 (Thermo Fisher Scientific, cat. 12634028), 10 mM HEPES (Thermo Fisher Scientific, cat. 15630080), 1X GlutaMAX supplement (Thermo Fisher Scientific, cat. 35050061), 0.1 mg/mL primocin (InvivoGen, cat. ant-pm-2), 10% defined fetal bovine serum, heat inactivated (HyClone Laboratories Inc., cat. SH30070.03HI), 50% L-WRN conditioned media (ATCC, cat. CRL-3276), 1.25 mM N-Acetyl-L-cysteine (Sigma-Aldrich, cat. A9165), 10 mM nicotinamide (Sigma-Aldrich, cat. N0636), 1X B-27 supplement (Thermo Fisher Scientific, cat. 17504044), 1X N-2 supplement (Thermo Fisher Scientific, cat. 17502048), 10 microM Y-27632 dihydrochloride (Tocris Bioscience, cat. 1254), and 50 ng/mL human EGF recombinant protein (Thermo Fisher Scientific, cat. PHG0311). The 485176-168-R4-J1-PDC line was cultured in Panc media, which includes all 6C/Colon 1B media components plus 100 ng/mL human FGF-10 (Thermo Fisher Scientific, cat. 100-26), 500 nM SB-431542 (Selleckchem, cat. S1067), and gastrin (Tocris, cat. 3006).
[…]

[1] = second compound 0.0316 µM, first compound 0.0316 µM
[2] = second compound 0.0316 µM, first compound 0.1 µM
[3] = second compound 0.0316 µM, first compound 0.316 µM
[4] = second compound 0.0316 µM, first compound 1 µM
[5] = second compound 0.0316 µM, first compound 3.16 µM
[6] = second compound 0.0316 µM, first compound 10 µM
[7] = second compound 0.1 µM, first compound 0.0316 µM
[8] = second compound 0.1 µM, first compound 0.1 µM
[9] = second compound 0.1 µM, first compound 0.316 µM
[10] = second compound 0.1 µM, first compound 1 µM
[11] = second compound 0.1 µM, first compound 3.16 µM
[12] = second compound 0.1 µM, first compound 10 µM
[13] = second compound 0.316 µM, first compound 0.0316 µM
[14] = second compound 0.316 µM, first compound 0.1 µM
[15] = second compound 0.316 µM, first compound 0.316 µM
[16] = second compound 0.316 µM, first compound 1 µM
[17] = second compound 0.316 µM, first compound 3.16 µM
[18] = second compound 0.316 µM, first compound 10 µM
[19] = second compound 1 µM, first compound 0.0316 µM
[20] = second compound 1 µM, first compound 0.1 µM
[21] = second compound 1 µM, first compound 0.316 µM
[22] = second compound 1 µM, first compound 1 µM
[23] = second compound 1 µM, first compound 3.16 µM
[24] = second compound 1 µM, first compound 10 µM
[25] = second compound 3.16 µM, first compound 0.0316 µM
[26] = second compound 3.16 µM, first compound 0.1 µM
[27] = second compound 3.16 µM, first compound 0.316 µM
[28] = second compound 3.16 µM, first compound 1 µM
[29] = second compound 3.16 µM, first compound 3.16 µM
[30] = second compound 3.16 µM, first compound 10 µM
[31] = second compound 10 µM, first compound 0.0316 µM
[32] = second compound 10 µM, first compound 0.1 µM
[33] = second compound 10 µM, first compound 0.316 µM
[34] = second compound 10 µM, first compound 1 µM
[35] = second compound 10 µM, first compound 3.16 µM
[36] = second compound 10 µM, first compound 10 µM
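Further: spheroids exposed to the agents for seven days before readout.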
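Wherever viability, T/C is given: percent viability relative to DMSO vehicle control wells taken as 100%.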

C=CC(=O)N1CCN(c2nc(=O)n(-c3c(C)ccnc3C(C)C)c3nc(-c4c(O)cccc4F)c(F)cc23)C(C)C1 (centres undefined) + CN(C)c1ccc(Nc2c3ccc(NC(=O)CCN4CCCC4)cc3nc3cc(NC(=O)CCN4CCCC4)ccc23)cc1 was tested, and the IC50 (second compound 0.0316 µM) was over 10 µM, the IC50 (second compound 0.1 µM) was over 10 µM and the IC50 (second compound 0.316 µM) was over 10 µM. It also gave an IC50 (second compound 1 µM) of over 10 µM, an IC50 (second compound 3.16 µM) of over 10 µM and an IC50 (second compound 10 µM) of 6.78 µM. It also gave a viability, T/C [1] of 107%, a viability, T/C [2] of 99.6% and a viability, T/C [3] of 106%. It also gave a viability, T/C [4] of 100%, a viability, T/C [5] of 106% and a viability, T/C [6] of 110%. The viability, T/C [7] was 101%, the viability, T/C [8] was 105% and the viability, T/C [9] was 105%. It also gave a viability, T/C [10] of 104%, a viability, T/C [11] of 102% and a viability, T/C [12] of 113%. It also gave a viability, T/C [13] of 96%, a viability, T/C [14] of 104% and a viability, T/C [15] of 106%. The viability, T/C [16] was 102%, the viability, T/C [17] was 97.1% and the viability, T/C [18] was 111%. For the same compound, the viability, T/C [19] was 94.3%, the viability, T/C [20] was 99.8% and the viability, T/C [21] was 102%. For the same compound, the viability, T/C [22] was 94.8%, the viability, T/C [23] was 108% and the viability, T/C [24] was 108%. It also gave a viability, T/C [25] of 99.6%, a viability, T/C [26] of 101% and a viability, T/C [27] of 107%. For the same compound, the viability, T/C [28] was 105%, the viability, T/C [29] was 106% and the viability, T/C [30] was 111%. The viability, T/C [31] was 105%, the viability, T/C [32] was 101% and the viability, T/C [33] was 108%. The viability, T/C [34] was 105%, the viability, T/C [35] was 106% and the viability, T/C [36] was 21.7%.
In the case of CC(C)n1c(=O)n(C)c2cnc3cc(F)c(-c4ccc(OCCCN5CCCCC5)nc4)cc3c21 + CN(C)c1ccc(Nc2c3ccc(NC(=O)CCN4CCCC4)cc3nc3cc(NC(=O)CCN4CCCC4)ccc23)cc1, the IC50 (second compound 0.0316 µM) is reported as over 10 µM, the IC50 (second compound 0.1 µM) is reported as over 10 µM and the IC50 (second compound 0.316 µM) is reported as over 10 µM. For the same compound, the IC50 (second compound 1 µM) was over 10 µM, the IC50 (second compound 3.16 µM) was 5.67 µM and the IC50 (second compound 10 µM) was 0.269 µM. It also gave a viability, T/C [1] of 108%, a viability, T/C [2] of 105% and a viability, T/C [3] of 108%. The viability, T/C [4] was 106%, the viability, T/C [5] was 108% and the viability, T/C [6] was 87.5%. The viability, T/C [7] was 103%, the viability, T/C [8] was 102% and the viability, T/C [9] was 106%. It also gave a viability, T/C [10] of 106%, a viability, T/C [11] of 107% and a viability, T/C [12] of 88%. For the same compound, the viability, T/C [13] was 98.1%, the viability, T/C [14] was 103% and the viability, T/C [15] was 107%. For the same compound, the viability, T/C [16] was 109%, the viability, T/C [17] was 107% and the viability, T/C [18] was 86.6%. For the same compound, the viability, T/C [19] was 103%, the viability, T/C [20] was 99.5% and the viability, T/C [21] was 107%. For the same compound, the viability, T/C [22] was 108%, the viability, T/C [23] was 103% and the viability, T/C [24] was 70.5%. For the same compound, the viability, T/C [25] was 102%, the viability, T/C [26] was 104% and the viability, T/C [27] was 107%. It also gave a viability, T/C [28] of 102%, a viability, T/C [29] of 87.1% and a viability, T/C [30] of 14.1%. The viability, T/C [31] was 98.7%, the viability, T/C [32] was 79% and the viability, T/C [33] was 46%. The viability, T/C [34] was 16%, the viability, T/C [35] was 5.65% and the viability, T/C [36] was 1.75%.
